Measured values: a melting point compilation (Tetko et al.; mined from patent text by program, amines drawn as free bases though some values may be those of a salt)

| melting point [°C] | Compound |
| --- | --- |
| > 270 | CC(C)(C)n1cc(C(=O)O)c(=O)c2cc(F)c(N3CCNCC3)nc21 |
| 195 to 196 | N#Cc1ccc2c(c1)C(=O)OC2 |
| 220 to 221 | CCOC(=O)Cn1c(=O)n(Cc2ccc(Br)cc2F)c(=O)c2cc(Cl)c(Cl)cc21 |
| 115 | CNC(=O)Sc1ncc(Cl)cn1 |
| 149 | CCOC(=O)c1cn(CC)c2nc(OC)ncc2c1=O |
| 324 | NS(=O)(=O)c1ccc(-c2cn(-c3nc(-c4ccc(Cl)cc4)cc(C(F)(F)F)n3)cn2)cc1 |
| 280 to 283 | Cc1nnc(NCCN2CCN(c3ncccn3)CC2)c2cc3ccccn3c12 |
| 77 to 79 | O=C(O)CC1(O)CC(CCCCCCc2ccc(Cl)cc2Cl)OC1=O (stereo not drawn) |
| 237 | O=C(Nc1cccc(S(=O)(=O)CCO)c1)c1cnn2c(C(F)(F)F)cc(-c3ccc(C(F)(F)F)cc3)nc12 |
| 154 | Cc1cc(C)cc(S(=O)(=O)n2c(COC(C)(C)C(=O)O)cc3nc(Cl)ccc32)c1 |
| 102 to 104 | CC(CNC(=O)c1ccc(Cl)nc1)Cn1ccnc1 (stereo not drawn) |
| 139 to 140 | Clc1ccc2c(C3CCN(CCCCC4Cc5ccccc5C4)CC3)c[nH]c2c1 |
| 249 to 250 | Clc1ccc(Nc2nnc(Cc3ccncc3)c3ccccc23)cc1Cl |
| 227 | NS(=O)(=O)c1ccc(CCI)cc1 |
| 206 to 208 | O=C1Cc2ccc3ccccc3c2OC1C(=O)c1cccc(Cl)c1 (stereo not drawn) |
| 88 to 90 | OCCN(CCO)CCCNc1nc2cc(Cl)c(Cl)cc2nc1-c1ccccn1 |
| 112 to 114 | COc1cccc(CC(O)C2CCN(CS(N)(=O)=O)CC2)c1OC (stereo not drawn) |
| 145 to 146 | CCOc1cc(OCc2nc(-c3ccco3)oc2C)ccc1CCl |
| 152 | O=C(Nc1ccc(-c2ccccc2)cc1)c1cccc([N+](=O)[O-])c1O |
| 193 | CSC[C@H](NCc1ccccc1N)C(=O)O |
| 206 to 208 | COc1ccc(CC2CCN(C(=O)C(=O)Nc3ccc(NS(C)(=O)=O)cc3)CC2)cc1 |
| 158 to 159 | CS(=O)c1nccc(N)n1 (stereo not drawn) |
| 181 to 184 | Cc1ccc2c(c1)C=C(C(=O)O)C(C(F)(F)F)S2 (stereo not drawn) |
| 157 to 160 | Cc1ccc(Oc2ccccc2-n2cnnn2)c(O)c1 |
| 264 to 265 | Cc1cccc2nc(-c3cc(C(F)F)nn3-c3ccc(S(N)(=O)=O)cc3)sc12 |
| 149 to 150 | c1ccc2c(CN3CCN(c4ccc5c(c4)OCO5)CC3)n[nH]c2c1 |

| melting point [°C] | Compound |
| --- | --- |
| > 300 | O=C(O)c1ccc(C(=O)Nc2cccc3cc(Br)cnc23)cc1 |
| 109 to 111 | CC(C)NC(=O)N(Nc1cccc(Cl)c1Cl)C1=CCCN1 |
| 69 to 71 | CC12CCC3C(CCC4CC(O[Si](c5ccccc5)(c5ccccc5)C(C)(C)C)CCC43C)C1CCC2C=C(Br)Br (stereo not drawn) |
| 157 to 160 | O=C(Cl)c1cc(C(=O)Cl)c(C#Cc2ccccc2)cc1C#Cc1ccccc1 |
| 82.5 to 84 | C=CC(O)(c1ccc(Cl)cc1)c1cccnc1 (stereo not drawn) |
| > 300 | CCn1cc(C(=O)O)c(=O)c2c(C)c(F)c(F)cc21 |
| 86 to 87 | CC(C)(C)c1ccc(C(C)(C)C(=O)Oc2ccc(SCCCC(=O)O)cc2)cc1 |
| 131 to 134 | C#CCN1CC(=O)N(c2cc(Cl)ccc2C)C1=S |
| > 300 | CSc1cc2c(cn1)c(=O)n1nc(C)cc1n2C |
| 117 to 122 | Cn1ncc(C(=O)O)c1OCc1ccccc1 |
| 340 to 342 | O=c1[nH]c2cc(-c3ccccc3)nnc2c2ccccc12 |
| 84 to 85 | Cc1ccc(-c2nc(Cl)cc(Cl)n2)cc1 |
| 52 to 55 | CCOC(=O)C(=CNc1ccc(F)c(F)c1OCC(C)O)C(=O)OCC (stereo not drawn) |
| 152 to 155 | CN1CCN(CC2=NC(NC(=O)Nc3cccc(C#N)c3)C(=O)N(CC(=O)N(C)c3ccccc3)c3ccccc32)CC1 (stereo not drawn) |
| 95.5 to 97 | COc1cccc(N(C)C(=S)Oc2ccc3ccccc3c2)n1 |
| 129 to 130 | CC(C)COC(=O)Oc1c(S(N)(=O)=O)sc2ccccc12 |
| 208 to 210 | Cc1cc(Cl)cc2c1OCC(/C=C/C=C/C=C/C(=O)O)=C2 |
| 202 | Cc1cn2c(nc1=O)CCCCC2 |
| 148 | CCCCC(F)c1cc(=O)[nH]cn1 (stereo not drawn) |
| 104 to 105 | Cc1c(NC(=O)c2ccc(OCc3ccccc3F)cc2)ccc2cc(CN3CCCC3)cnc12 |
| 188 to 189 | COc1ccc(OC)c2c1CCC(Nc1ccc(O)cc1)C2 (stereo not drawn) |
| 117 to 119 | CCCCCC(=O)NS(=O)(=O)/C=C/c1cc(OCCCC)nn1Cc1ccc(Cl)cc1Cl |
| 104 to 105 | COC(=O)COc1ccc(CCN2CCN(c3ccncc3)CC2)cc1 |
| 77 to 79 | CCC(COc1cccc(COc2cccc3cccnc23)c1)OC(C)=O (stereo not drawn) |
| 218 | OC1CSC(Oc2ccc(Cl)nc2)C(O)C1O (stereo not drawn) |
| 126 to 128 | NS(=O)(=O)c1ccc(-n2nc(C(F)(F)F)cc2-c2ccc(Cl)cc2)cc1 |

| melting point [°C] | Compound |
| --- | --- |
| 183 to 187 | Fc1cc2c(cc1F)C(n1cc[nH]c1=S)CC2 (stereo not drawn) |
| 83 to 86 | CCCCC(=O)OC1C(O)C(CO)OC1n1cnc2c(OC)nc(N)nc21 (stereo not drawn) |
| 169 to 174 | Cc1c(NC(=O)c2ccc(OC[C@@H]3CCCO3)cc2)ccc2cc(CN3CCC(C)(O)CC3)cnc12 |
| 145 to 147 | CCN(C(=O)N1CCN(c2cc(C)cc(C)c2)CC1)c1nc2ccccc2nc1OC |
| 73 to 76 | CC(C)(C)OC(=O)N[C@@H](CCC(=O)OCc1ccccc1)C(=O)OCc1ccccc1 |
| 95 to 98 | Cc1nc(Cl)cc(-c2ccc(F)cc2)n1 |
| 130 to 131 | Oc1cc2c(cc1CCCCSc1cccnc1)OCC2 |
| 137 to 138 | Cc1ccc(C2(O)CCNCC2)cc1 |
| 222 to 224 | O=C(O)COc1ccc2c(-c3ccc(Cl)c(Cl)c3)noc2c1Cl |
| 206 to 208 | CC(=O)Oc1c(C)cc(NC(=O)NC2=C(c3ccccc3)c3ccccc3CS2)cc1C |
| 78 to 80 | C#CC[C@@H](NCCCN1C(=O)c2ccccc2C1=O)c1nc2cc(Cl)ccc2c(=O)n1Nc1ccccc1 |
| 120 to 123 | O=S(=O)(Nc1ccc2[nH]ncc2c1)C1CCNCC1 |
| 203 to 206 | Nc1c(NCCCOc2cccc(C=O)c2)c(=O)c1=O |
| 196 to 199 | Cc1ccc(C2(CCC(=O)O)NC(=O)NC2=O)cc1Cl (stereo not drawn) |
| 164 to 166 | CCCCc1nc2c(N)nc3c(c2n1CC(C)C)CCNC3 |
| 104 to 107 | Cc1nc2c(-c3cccc(N4CCN(CCO)CC4)c3)cnn2c(N)c1-c1ccc(F)c(Cl)c1 |
| 226 to 229 | O=c1oc2c(c(O)c1Br)c(=O)n(Cc1ccccc1)c1ccccc21 |
| > 200 | COC(=O)CCc1ccc(N2CCN(c3ccc(CCN)cc3)C2=O)cc1 |
| 157 to 158 | N=c1cc(NC(=S)Nc2ccccc2)nc2n1CCCS2 |
| 160 to 162 | CC1CCC(=NNc2ccccc2)c2ncc(CC(=O)O)c(=O)n21 (stereo not drawn) |
| 152 to 153 | Ic1ncnc2c1ncn2Cc1ccccc1 |
| 121 to 122 | CCOc1cc(OCCOCc2ccccc2)cc2c1C(=O)N(COC(=O)c1c(Cl)cccc1Cl)S2(=O)=O |
| 173 to 175 | CC(=O)Oc1ccccc1C(=O)Nc1ncc(S(C)(=O)=O)s1 |
| 143 to 144 | O=C(CCc1cccnc1)NCCCCC1CCN(C(=O)Nc2cccc3ccccc23)CC1 |
| 196 to 200 | CC(C)(C)c1cc2oc(-c3ccc(S(N)(=O)=O)cc3)c(-c3ccc(F)cc3)n2n1 |
| 116 to 118 | N#Cc1cc(Oc2ccc(Cl)cc2)ccc1N |

| melting point [°C] | Compound |
| --- | --- |
| 133 to 139 | Nc1c(F)c(N2CCC(C3(N)CCC3)C2)c(F)c2c1c(=O)c(C(=O)O)cn2[C@@H]1C[C@@H]1F (stereo partly drawn) |
| 114 to 118 | COC(=O)C1=NN(c2ccc(F)cc2)C(C)(C(=O)OC)C1 (stereo not drawn) |
| 104 to 106 | Cn1c(C(F)(F)F)cc(=O)n(-c2cc(OCC(N)=O)c(Cl)cc2F)c1=O |
| 120 to 121 | CC[C@@H](c1ccc(C(F)(F)F)cc1)N(Cc1ccc(C(=O)OC)cc1)S(=O)(=O)c1ccc(Cl)cc1 |
| 179 to 183 | Cn1cc(C(O)CO)c2c3c(c(-c4ccccc4Cl)cc21)C(=O)NC3=O (stereo not drawn) |
| 145 to 146 | COC(=O)c1ccc(O)c(I)c1 |
| 134 to 135 | COC(=O)c1ccc(OC)c(Nc2cc(Cl)cc(Cl)c2)c1 |
| 159 to 161 | O=C(O)c1cc(Br)cc([N+](=O)[O-])c1NCc1ccccc1Cl |
| > 350 | CN1C(=O)c2c(c3c4ccccc4[nH]c3c3[nH]c4ccccc4c23)C1=O |
| 69 to 72 | CN(C)Cc1ccc(CSCCNC(=C[N+](=O)[O-])NCCCCCCCCCCCCNC(=C[N+](=O)[O-])NCCSCc2ccco2)o1 |
| 152 to 153 | O=C1c2ccccc2-c2ccncc21 |
| 75 to 77 | CCCCCN1C(=O)C(c2ccc3c(c2)OCO3)c2cccnc21 (stereo not drawn) |
| > 305 | Cc1[nH]c(=O)c(C#N)cc1C(=O)c1ccncc1 |
| 156 to 158 | CC(=O)OCC(C)(C)c1ccc(S(N)(=O)=O)cc1 |
| 171 to 172 | Cn1ncc(/C=C/C(=O)Nc2ccc(OCc3cscn3)cc2)c1-c1ccc(F)cc1 |
| 149 to 151 | CCN(C(=O)C1CC1)c1cccc(-c2ccc3nnc(C)n3n2)c1 |
| 72 to 73 | CC=CCONC(C)=C1C(=O)CC(CCSc2ccc(C(F)(F)F)cc2)CC1=O (stereo not drawn) |
| 203 | COc1ccccc1-c1nc2cc(NC(=O)OC(C)(C)C)ccn2n1 |
| 212 to 214 | CCSc1cc2ncc(C#N)c(Nc3cc(OC)c(Cl)cc3Cl)c2cc1OC |
| 140 to 142 | N#Cc1c(OCCO)cccc1[N+](=O)[O-] |
| 38 | CCCCCCCCCCCCCCc1ccc(OC)cc1 |
| 125 to 126 | CCOC(=O)c1c(-c2ccccc2Cl)c2cc(CC)ccc2n(C)c1=O |
| 230 | c1ccc(Sc2cc(Sc3ccccc3)c3ccc4c(Sc5ccccc5)cc(Sc5ccccc5)c5ccc2c3c54)cc1 |
| 67 to 72 | CCCCC(=O)OC1(C(=O)CCl)CCC2C3CC(C)C4CC(=O)CCC4(C)C3(F)C(=O)CC21C (stereo not drawn) |

| Compound | melting point [°C] |
| --- | --- |
| NP(N)(=O)NC(=O)c1cccnc1 | 280 to 283 |
